Test results taken from PMC6934184, “Selective DNA-PKcs inhibition extends the therapeutic index of localized radiotherapy and chemotherapy” (The Journal of Clinical Investigation, 2019).

Biological target: T1, MAP2K2 (MEK2) (Homo sapiens, UniProt P36507)
T1 construct: purchased Thermo Fisher Scientific (Life Technologies) SelectScreen
Test: SelectScreen Z'LYTE
Assay type: biochemical
Details: ATP 100 µM
In short: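 SelectScreen broad panel; activity (Z'LYTE, Adapta) plus binding formats. ATP: Km app for CSF1R Z'LYTE; 10 for CAMK1 Adapta. Readout = % per kinase.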

T1 sequence (P36507 whole entry): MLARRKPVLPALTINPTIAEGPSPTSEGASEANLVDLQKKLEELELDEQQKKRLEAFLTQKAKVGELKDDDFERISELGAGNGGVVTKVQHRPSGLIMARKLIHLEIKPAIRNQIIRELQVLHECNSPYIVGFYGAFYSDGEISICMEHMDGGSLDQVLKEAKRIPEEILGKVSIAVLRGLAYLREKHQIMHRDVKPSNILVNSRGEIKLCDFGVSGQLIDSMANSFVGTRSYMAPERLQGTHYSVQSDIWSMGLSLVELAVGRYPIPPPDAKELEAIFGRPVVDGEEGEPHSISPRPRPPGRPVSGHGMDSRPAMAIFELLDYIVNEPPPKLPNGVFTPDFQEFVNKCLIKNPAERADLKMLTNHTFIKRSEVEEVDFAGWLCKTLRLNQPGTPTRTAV

CN(C(=O)CN1CCOCC1)c1ccc2sc3c(-c4cccc5c(=O)cc(N6CC7CCC(C6)O7)oc45)cccc3c2c1 [NU5455]
inhibition at 1 µM: 3.9%
